These results are taken from ChEMBL document CHEMBL5236653, “Dual functional antioxidant and butyrylcholinesterase inhibitors for the treatment of Alzheimer's disease: Design, synthesis and evaluation of novel melatonin-alkylbenzylamine hybrids” (Bioorg Med Chem, 2023).

A short description of one series: in vitro. To be noted: PAMPA. (The PAMPA barrier holds no transporters, so it reflects passive diffusion.)
Series [1] in a line: Selectivity index, ratio of IC50 for inhibition of human erythrocyte AChE to inhibition of human serum BuChE.
Series [2] is described as follows: Antioxidant activity assessed as trolox equivalent of ORAC radical scavenging activity by ORAC assay. It is filed as functional.
For series [3], the target named is T1, Cholinesterase (Homo sapiens, UniProt P06276). Briefly: Inhibition of human serum BuChE using ATCI and BTCI as substrate preincubated for 5 mins followed by substrate addition and measured after 3 mins by DTNB-reagent based Ellman's method. The series is classed as cell-free. A general note: In Ellman's method for cholinesterases, released thiocholine reacts with DTNB.
T1 sequence (P06276 whole entry): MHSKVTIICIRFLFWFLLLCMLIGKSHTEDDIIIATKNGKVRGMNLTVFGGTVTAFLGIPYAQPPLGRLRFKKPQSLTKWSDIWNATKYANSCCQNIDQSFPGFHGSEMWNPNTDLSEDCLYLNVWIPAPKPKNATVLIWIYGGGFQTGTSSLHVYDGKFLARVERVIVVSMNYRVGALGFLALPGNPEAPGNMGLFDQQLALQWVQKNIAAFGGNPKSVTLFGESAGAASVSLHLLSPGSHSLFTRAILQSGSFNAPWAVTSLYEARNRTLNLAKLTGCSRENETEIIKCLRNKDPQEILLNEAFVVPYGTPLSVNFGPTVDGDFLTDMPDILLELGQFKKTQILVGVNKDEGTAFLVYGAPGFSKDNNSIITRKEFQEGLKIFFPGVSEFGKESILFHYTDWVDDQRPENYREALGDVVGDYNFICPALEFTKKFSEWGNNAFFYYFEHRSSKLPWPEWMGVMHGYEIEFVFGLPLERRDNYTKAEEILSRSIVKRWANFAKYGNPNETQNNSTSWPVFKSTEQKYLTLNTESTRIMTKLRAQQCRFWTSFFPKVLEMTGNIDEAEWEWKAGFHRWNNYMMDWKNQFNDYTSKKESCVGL

The target in series [4] is Acetylcholinesterase (Electrophorus electricus, UniProt O42275). Briefly: Inhibition of electric eel AChE using ATCI and BTCI as substrate preincubated for 5 mins followed by substrate addition and measured after 3 mins by DTNB-reagent based Ellman's method.
Acetylcholinesterase (Electrophorus electricus, UniProt O42275), sequence (O42275 whole entry): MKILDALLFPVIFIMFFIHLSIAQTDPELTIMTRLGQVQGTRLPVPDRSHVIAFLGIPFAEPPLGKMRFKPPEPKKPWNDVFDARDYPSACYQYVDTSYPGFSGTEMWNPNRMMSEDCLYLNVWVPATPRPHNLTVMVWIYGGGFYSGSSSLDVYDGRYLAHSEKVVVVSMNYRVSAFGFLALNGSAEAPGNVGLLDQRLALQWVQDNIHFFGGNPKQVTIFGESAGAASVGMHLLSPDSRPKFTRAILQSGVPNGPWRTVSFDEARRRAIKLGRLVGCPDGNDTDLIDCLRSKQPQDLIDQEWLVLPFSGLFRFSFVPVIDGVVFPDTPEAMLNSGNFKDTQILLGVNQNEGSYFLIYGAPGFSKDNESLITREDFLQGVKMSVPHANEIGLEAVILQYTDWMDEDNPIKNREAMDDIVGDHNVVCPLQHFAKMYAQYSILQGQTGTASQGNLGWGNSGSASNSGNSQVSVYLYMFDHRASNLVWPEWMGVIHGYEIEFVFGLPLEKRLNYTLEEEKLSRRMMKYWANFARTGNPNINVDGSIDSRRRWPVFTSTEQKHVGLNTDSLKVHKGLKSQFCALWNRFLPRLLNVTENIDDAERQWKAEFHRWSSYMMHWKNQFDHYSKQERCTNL
For series [5], the target named is Cholinesterase (Equus caballus, UniProt P81908). Description: Inhibition of equine serum BuChE using ATCI and BTCI as substrate preincubated for 5 mins followed by substrate addition and measured after 3 mins by DTNB-reagent based Ellman's method. It is filed as cell-free.
Cholinesterase (Equus caballus, UniProt P81908), sequence (P81908 whole entry): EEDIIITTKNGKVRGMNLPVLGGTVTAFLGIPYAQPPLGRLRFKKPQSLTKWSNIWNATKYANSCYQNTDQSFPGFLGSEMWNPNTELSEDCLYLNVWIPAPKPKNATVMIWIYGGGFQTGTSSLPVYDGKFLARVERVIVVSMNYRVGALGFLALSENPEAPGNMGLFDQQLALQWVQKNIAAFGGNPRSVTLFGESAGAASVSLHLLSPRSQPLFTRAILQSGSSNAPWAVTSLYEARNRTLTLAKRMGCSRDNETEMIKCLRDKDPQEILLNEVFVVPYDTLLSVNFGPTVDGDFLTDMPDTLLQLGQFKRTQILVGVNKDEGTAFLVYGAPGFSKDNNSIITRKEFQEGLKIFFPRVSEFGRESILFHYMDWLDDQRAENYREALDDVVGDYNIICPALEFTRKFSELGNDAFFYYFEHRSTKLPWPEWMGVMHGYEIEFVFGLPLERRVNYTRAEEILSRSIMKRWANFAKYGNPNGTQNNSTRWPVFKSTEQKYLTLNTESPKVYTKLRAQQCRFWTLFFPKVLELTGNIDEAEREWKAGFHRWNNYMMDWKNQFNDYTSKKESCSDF
Series [6] addresses T2, Acetylcholinesterase (Homo sapiens, UniProt P22303). Description: Inhibition of human erythrocyte AChE at 100 uM using ATCI and BTCI as substrate preincubated for 5 mins followed by substrate addition and measured after 3 mins by DTNB-reagent based Ellman's method relative to control. Conditions: time 8.0 min.
The subject of series [7] is Mus musculus. Briefly: Antialzheimer activity in scopolamine-induced cognitive impairment Kunming mouse model assessed as number of errors in step down test at 80 mg/kg, po administered for 1 hr followed by scopolamine induction for 0.5 hr and measured after 5 min. Conditions: time 95 min, 1.583 h. It is filed as functional.
Series [8] in a line: Acute toxicity in Kunming mouse assessed as effect on body weight at 625 to 2500 mg/kg, po measured at 4 to 14 days. The series is classed as organism-based. To be noted: in vivo, dose lower 625 mg/kg, time lower 4 day, dose upper 2500 mg/kg, time upper 14 day.
Series [9] can be described thus: Selectivity index, ratio of IC50 for inhibition of human erythrocyte AChE to IC50 for inhibition of human serum BuChE.
In series [10] the test system is Mus musculus. Description: Antialzheimer activity in scopolamine-induced cognitive impairment Kunming mouse model assessed as number of errors in step down test at 20 mg/kg, po administered for 1 hr followed by scopolamine induction for 0.5 hr and measured after 5 min (Rvb=2.2). The series is classed as functional. To be noted: time 95 min, 1.583 h.
Series [11] deals with PC-12. Briefly: Activation of Nrf2-ARE pathway in rat PC-12 cells assessed as upregulation of GPX4 expression level incubated for 8 hrs by Western blot analysis. It is filed as cell-based. To be noted: filed as activator, dose >= 2.0 µM.
The nature of series [12]: Cytotoxicity against mouse BV-2 cells assessed as cell viability at 10 uM measured after 24 hrs by CCK-8 assay. The series is classed as toxicity, cell-based. Conditions: read-out: Activity. In general terms: Formazan colour is commonly taken as a measure of viable cells.
For series [13], the system named is PC-12. Briefly: Activation of Nrf2-ARE pathway in rat PC-12 cells assessed as increase in Nrf2 expression level in nucleus at 1 uM by Western blot analysis. It is filed as cell-based. To be noted: filed as activator, time >= 8.0 hrs, TDE = time-dependent effect.
Series [14] can be described thus: Acute toxicity in Kunming mouse at >= 2500 mg/kg, IG measured for 14 days. It is filed as organism-based. Conditions: in vivo, po, 336 h, time 14 day.
Series [15] has as its system PC-12. Briefly: Activation of Nrf2-ARE pathway in rat PC-12 cells assessed as upregulation of NQO1 expression level incubated for 8 hrs by Western blot analysis. Conditions: filed as activator, dose >= 2.0 µM. It is filed as cell-based.
For series [16], the system named is Mus musculus. Briefly: Antialzheimer activity in scopolamine-induced cognitive impairment Kunming mouse model assessed as step down latency time at 20 mg/kg, po administered for 1 hr followed by scopolamine induction for 0.5 hr and measured after 5 min (Rvb=36.25 sec). The series is classed as functional. Conditions: time 95 min, 1.583 h.
Series [17] in a line: Acute toxicity in Kunming mouse assessed as abnormalities in kidney at 2500 mg/kg, po measured on day 14 by H and E staining based histopathological analysis. The series is classed as organism-based. To be noted: in vivo, 336 h, time 14 day.
In series [18] the target is T2, Acetylcholinesterase. Description: Inhibition of human erythrocyte AChE using ATCI and BTCI as substrate preincubated for 5 mins followed by substrate addition and measured after 3 mins by DTNB-reagent based Ellman's method.
Series [19] has as its system PC-12. Description: Cytotoxicity against rat PC12 cells assessed as cell viability at 0.625 to 10 uM measured after 24 hrs by CCK-8 assay. It is filed as toxicity, cell-based. Conditions: pc-12, 24 h, dose 0.625-10 µM.
Series [20] can be described thus: Acute toxicity in Kunming mouse assessed as abnormalities in lung at 2500 mg/kg, po measured on day 14 by H and E staining based histopathological analysis. The series is classed as organism-based. To be noted: in vivo, 336 h, time 14 day.
Series [21] deals with T1, Cholinesterase. Briefly: Mixed type inhibition of human BuChE assessed as inhibition constant using butyrylthiocholine iodide as substrate by lineweaver-burk plot analysis.
Series [22] can be described thus: Acute toxicity in Kunming mouse assessed as abnormalities in liver at 2500 mg/kg, po measured on day 14 by H and E staining based histopathological analysis. It is filed as organism-based. To be noted: in vivo, 336 h, time 14 day.
In series [23] the test system is PC-12. Briefly: Activation of Nrf2-ARE pathway in rat PC-12 cells assessed as increase in Nrf2 expression level incubated for 4 to 8 hrs by Western blot analysis. Conditions: filed as activator, dose >= 2.0 µM, time 4-8 hrs. It is filed as cell-based.
Series [24] has as its system Mus musculus. Description: Antialzheimer activity in scopolamine-induced cognitive impairment Kunming mouse model assessed as step down latency time at 80 mg/kg, po administered for 1 hr followed by scopolamine induction for 0.5 hr and measured after 5 min. The series is classed as functional. Conditions: time 95 min, 1.583 h.
Series [25] is described as follows: Acute toxicity in Kunming mouse assessed as abnormalities in brain at 2500 mg/kg, po measured on day 14 by H and E staining based histopathological analysis. It is filed as organism-based. To be noted: in vivo, 336 h, time 14 day.
Series [26] concerns the target Acetylcholinesterase (Electrophorus electricus) (UniProt O42275). Briefly: Inhibition of electric eel AChE at 100 uM using ATCI and BTCI as substrate preincubated for 5 mins followed by substrate addition and measured after 3 mins by DTNB-reagent based Ellman's method relative to control. Conditions: time 8.0 min.
Series [27] can be described thus: Selectivity index, ratio of IC50 for inhibition of equine serum BuChE to inhibition of electric eel AChE.

One may read the Papp as the rate of passage across a membrane or cell layer, normalised by area and donor concentration. A higher Papp goes with fast passage. What is called IC50 is the concentration that gives 50% inhibition. The low end stands for greater potency, the high end for weaker potency. A word on the inhibition: it is how much of the control response was suppressed. Read a low inhibition as little suppression. As usually defined, the Ki is a dissociation constant, usually derived from enzyme kinetics or from competition with a known ligand.

Structures are written as SMILES. Bounds are passed on as bounds.

T2 sequence (P22303 whole entry): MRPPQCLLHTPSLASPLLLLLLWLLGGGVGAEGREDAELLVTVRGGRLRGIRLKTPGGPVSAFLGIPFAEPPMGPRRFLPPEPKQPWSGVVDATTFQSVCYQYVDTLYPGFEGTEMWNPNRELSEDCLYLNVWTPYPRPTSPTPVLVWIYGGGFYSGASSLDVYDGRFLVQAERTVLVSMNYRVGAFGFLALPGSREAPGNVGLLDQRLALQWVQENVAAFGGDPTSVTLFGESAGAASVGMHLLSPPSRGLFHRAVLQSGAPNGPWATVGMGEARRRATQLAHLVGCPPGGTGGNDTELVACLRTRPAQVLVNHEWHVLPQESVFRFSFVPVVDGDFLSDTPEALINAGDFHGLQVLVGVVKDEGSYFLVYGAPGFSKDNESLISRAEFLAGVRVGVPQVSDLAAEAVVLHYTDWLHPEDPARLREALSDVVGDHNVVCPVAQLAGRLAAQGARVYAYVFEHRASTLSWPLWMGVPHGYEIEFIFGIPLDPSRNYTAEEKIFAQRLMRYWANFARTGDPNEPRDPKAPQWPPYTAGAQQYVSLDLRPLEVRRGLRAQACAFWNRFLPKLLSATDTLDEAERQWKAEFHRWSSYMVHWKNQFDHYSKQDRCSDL
Acetylcholinesterase (Electrophorus electricus), sequence (O42275 24-633 limits assumed): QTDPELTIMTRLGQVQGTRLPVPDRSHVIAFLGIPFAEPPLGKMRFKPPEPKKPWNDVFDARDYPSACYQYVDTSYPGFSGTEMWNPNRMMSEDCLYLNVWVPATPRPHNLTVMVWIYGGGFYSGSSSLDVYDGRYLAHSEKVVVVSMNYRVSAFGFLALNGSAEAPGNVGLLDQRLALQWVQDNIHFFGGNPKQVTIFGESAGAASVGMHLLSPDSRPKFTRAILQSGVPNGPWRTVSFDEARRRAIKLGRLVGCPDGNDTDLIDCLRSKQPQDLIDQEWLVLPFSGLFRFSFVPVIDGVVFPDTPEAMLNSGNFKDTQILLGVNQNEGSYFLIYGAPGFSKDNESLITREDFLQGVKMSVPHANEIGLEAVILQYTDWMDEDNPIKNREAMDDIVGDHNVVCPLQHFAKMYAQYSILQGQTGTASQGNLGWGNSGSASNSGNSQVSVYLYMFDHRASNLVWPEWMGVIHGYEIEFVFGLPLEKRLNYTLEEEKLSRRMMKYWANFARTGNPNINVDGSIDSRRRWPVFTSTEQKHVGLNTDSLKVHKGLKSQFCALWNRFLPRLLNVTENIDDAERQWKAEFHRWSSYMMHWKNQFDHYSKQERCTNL
Description for in vitro: Permeability coefficient of the compound across blood brain barrier incubated for 18 hrs by PAMPA assay

As to `COc1cccc(CN(C)CCCCCCCCCCCCn2cc(C=O)c3cc(OC)ccc32)c1`, the Papp at 18 h in “in vitro” worked out at 1.82 ×10⁻⁶ cm/s. Further, the Selectivity Index in series [1] was over 200. Also, the Activity in series [2] is under 0.01 equiv. Moreover, the IC50 on Cholinesterase [3] is 5490 nM; at Acetylcholinesterase [4], 69100 nM; on Cholinesterase [5], 430 nM. The molecule also returned an inhibition on Acetylcholinesterase [6] of 46.1%.

Turning to `CN(CCCCCCCCCCCCn1cc(C=O)c2cc(O)ccc21)Cc1cccc(O)c1`, the Activity with Mus musculus [7] was 0.6; in series [8], “Non-Toxic”; in the series on Mus musculus [10], 2.5; in the series with PC-12 [11], “Dose-Dependent Effect”; in the series with PC-12 [13], “Tde”; in series [14] it was “Non-Toxic”. Besides, the Activity result in the series with PC-12 [15] is “Dose-Dependent Effect”; in [2], 5.13 equiv; in series [17], “Non-Toxic”; in the series on PC-12 [19], “Non-Toxic”; in series [20], “Non-Toxic”; in series [22], “Non-Toxic”. The figures for the Activity result (in the series with PC-12 [23]; in series [25]) were “Dose-Dependent Effect” and “Non-Toxic”, respectively. Further, the Papp at 18 h in “in vitro” is 9.98 ×10⁻⁶ cm/s. Also, in series [9], the Ratio IC50 stood at 148. The viability at 24 h, 10 µM in series [12] is over 50%. In addition, the IC50 against Cholinesterase [3] came to 1200 nM; against Acetylcholinesterase [18], 177000 nM; against Acetylcholinesterase [4], 69500 nM; on Cholinesterase [5], 2140 nM. Moreover, the Time with Mus musculus [16] came to 17.6 s; in the series with Mus musculus [24], 233 s. In addition, on Cholinesterase [21], the Ki was 1770 nM.

In turn, `COc1ccc2c(c1)c(C=O)cn2CCCCCCCCCCCCN(C)Cc1ccc(O)cc1` returned a Papp at 18 h in the series “in vitro” of 10 ×10⁻⁶ cm/s. Further, the Selectivity Index in [1] is over 100. For the same molecule, the Activity in series [2] is under 0.01 equiv. For the same molecule, the IC50 was determined as 260 nM on Cholinesterase [3], 60600 nM at Acetylcholinesterase [18], 33800 nM against Acetylcholinesterase [4] and 1040 nM against Cholinesterase [5].

Molecule `COc1ccc2c(c1)c(C=O)cn2CCCCCCCCCN(C)Cc1ccc(O)cc1` returned a Papp at 18 h in “in vitro” of 5.85 ×10⁻⁶ cm/s. Besides, the Ratio IC50 in series [9] was found to be 16. Besides, in series [2], the Activity was under 0.01 equiv. Also, the IC50 on Cholinesterase [3] worked out at 390 nM; against Acetylcholinesterase [18], 6230 nM; on Acetylcholinesterase [4] it was 25800 nM; against Cholinesterase [5] it was 530 nM.

For `COc1ccc2c(c1)c(C=O)cn2CCCCN(C)Cc1cccc(O)c1`, the inhibition in series [26] was determined as 48.2%. Further, the Activity in series [2] was under 0.01 equiv. Besides, the Selectivity Index in [27] was over 2. For the same molecule, on Cholinesterase [5], the IC50 amounted to 42000 nM.

With `COc1ccc(CN(C)CCCCCCCCCCCCn2cc(C=O)c3cc(OC)ccc32)cc1`, the Papp at 18 h in “in vitro” came to 4.09 ×10⁻⁶ cm/s. In addition, in series [9], the Ratio IC50 was 233. Also, in series [2], the Activity is under 0.01 equiv. Also, the IC50 against Cholinesterase [3] was determined as 430 nM; at Acetylcholinesterase [4], 79900 nM; at Cholinesterase [5], 5490 nM. Also, the inhibition against Acetylcholinesterase [6] turned out to be 46.1%.

As to `COc1ccc2c(c1)c(C=O)cn2CCCCCCCCCCN(C)Cc1ccc(O)cc1`, the Papp at 18 h in “in vitro” stood at 5.46 ×10⁻⁶ cm/s. Further, the Ratio IC50 in [9] is 3.16. Also, in series [2], the Activity was 0.05 equiv. The IC50 on Cholinesterase [3] came to 190 nM; against Acetylcholinesterase [18], 600 nM; against Acetylcholinesterase [4] it was 1470 nM; against Cholinesterase [5], 120 nM.

`COc1ccc2c(c1)c(C=O)cn2CCCN(C)Cc1cccc(O)c1` returned an inhibition in series [26] of 48.1%. In series [2], the Activity is 0.37 equiv. The Selectivity Index in series [27] was over 1. For the same molecule, inhibition against Cholinesterase [5] was half-maximal at 72300 nM (IC50).

`COc1ccc2c(c1)c(C=O)cn2CCCCCCCCN(C)Cc1ccc(O)cc1` came in with a Papp at 18 h in “in vitro” of 4.62 ×10⁻⁶ cm/s. For the same molecule, in series [9], the Ratio IC50 worked out at 4.2. In addition, the Activity in series [2] worked out at 0.28 equiv. In addition, the 50% inhibitory concentration (IC50) at Cholinesterase [3] worked out at 490 nM; on Acetylcholinesterase [18] it was 2060 nM; against Acetylcholinesterase [4] it was 1770 nM; on Cholinesterase [5] it was 450 nM.

Turning to `CCN(CCCCCCCCCCCCn1cc(C=O)c2cc(OC)ccc21)Cc1cccc(O)c1`, in the series “in vitro”, the Papp at 18 h was found to be 8.18 ×10⁻⁶ cm/s. In [9], the Ratio IC50 was found to be 48.3. The Activity in [2] was found to be 0.13 equiv. Besides, the IC50 against Cholinesterase [3] was 880 nM; at Acetylcholinesterase [18], 42500 nM; at Acetylcholinesterase [4], 10500 nM; against Cholinesterase [5] it was 190 nM.
